According to PubChem BioAssay AID489027 (Sanford-Burnham Center for Chemical Genomics, 2010):
Activity calls are given as the source filed them. How the calls were made is not given here.

These compounds were tested against UPR counterscreen luciferase reporter, luminescence (assay: luciferase reporter activation, UPR counterscreen line – cell-based, luminescence, counter-screen for adaptive UPR activator project, dose response (AID 489027)).

SMILES	EC50
COc1ccc2[nH]c3c(c2c1)CCN1C(=O)C(CC(=O)NC/C=C(\C)CCC=C(C)C)C[C@H](C(=O)N(C(C)C)C(C)C)[C@@]31C (some centres not stated)	inactive
O=C(NN1C(=O)/C(=C/c2ccc(O)c(O)c2)SC1=S)c1ccccc1	10.2 µM
CCOC(=O)C(=CNc1nc(-c2ccccc2)c(C(=O)Nc2ccc(-c3ccccc3)cc2)s1)C(=O)OCC	inactive
Brc1cc(Br)c2ncnc(N3CCCCC3)c2c1	inactive
CCCCCn1c(N)c(-c2nc3ccccc3o2)c2c([N+](=O)[O-])nn(CC)c(=O)c21	inactive
CC1CCCN(c2ccc(C(=O)NCc3cccs3)cn2)C1 (configuration not stated)	> 80 µM (inactive)
CCC1CCc2c(sc3nc(SCC(=O)NCc4ccco4)n(-c4ccccc4)c(=O)c23)C1 (configuration not stated)	15.8 µM
COc1ccc2oc(-c3ccc(C)c(NC(=O)c4ccc(N5CCOCC5)c([N+](=O)[O-])c4)c3)nc2c1	> 80 µM (inactive)
Cc1cc(C)c2c(CCl)cc(=O)oc2c1	19.1 µM
CCOC(=O)c1nnc(-c2ccccc2)nc1Oc1ccc(Cl)cc1	19.6 µM
COc1ccc(N=Cc2c(O)c3ccccc3oc2=O)cc1	10.3 µM
O=C(Nc1nc(-c2ccc(F)c(F)c2)cs1)Nc1ccc(F)cc1F	13.4 µM
Cc1ccc(S(=O)(=O)Cc2cc(F)c([N+](=O)[O-])cc2[N+](=O)[O-])cc1	> 80 µM (inactive)
CCCCCCCC(=O)Nc1ccc(C(=O)N/N=C/c2cccc([N+](=O)[O-])c2)cc1	2.33 µM
COc1cc(C(=O)Nc2cc(-c3nc4cc(C)ccc4o3)ccc2C)cc(OC)c1OC	inactive
CCOC(=O)C1=C(C)N=c2s/c(=C3/C(=O)Nc4ccccc43)c(=O)n2C1c1ccc(C)cc1 (configuration not stated)	> 80 µM (inactive)

Now from value to compound:

EC50	SMILES
inactive	Cn1nc(C(F)(F)F)c(/C=N/OC(=O)c2ccccc2)c1SCc1ccccc1Cl
> 80 µM (inactive)	CCc1nn(-c2cc(Oc3cccc4ccccc34)nc(-c3ccccc3)n2)c(N)c1C#N
7.28 µM	COc1cc([C@H]2c3[nH]c4ccccc4c3C[C@H]3C(=O)N4[C@@H](c5cc(OC)c(OC)c(OC)c5)c5[nH]c6ccccc6c5C[C@H]4C(=O)N23)cc(OC)c1OC
9.23 µM	COc1ccccc1N=Cc1c(O)c2ccccc2oc1=O
inactive	CCC(C)Nc1nc(N)c([N+](=O)[O-])c(NC2CCCCC2)n1 (configuration not stated)
inactive	O=C(Cn1c2ccccc2c(=O)c2cc([N+](=O)[O-])ccc21)Nc1ccccc1Cl
inactive	COc1ccc(-c2c/c(=N\c3nc(-c4ccccc4)c(C)s3)c3ccccc3o2)cc1O
12.1 µM	C/C(CC(C)(C)C1CCCCC1)=N\NC(N)=S
inactive	CCn1cc(C(=O)NC(=S)Nc2sc3c(c2C(=O)OC)CCCCCC3)cn1
7.15 µM	CCOC(=O)Cc1csc(/N=C/c2c(O)n(-c3ccc(C)c(C)c3)c(=O)c3ccccc23)n1
15.6 µM	CCc1sc2nc(SCC(=O)Nc3cc(C)on3)n(-c3cccc(OC)c3)c(=O)c2c1C
inactive	N#Cc1ccc(N/N=C/c2cn(-c3ccccc3)nc2-c2ccccc2)c([N+](=O)[O-])c1
> 80 µM (inactive)	Cc1ccc(-n2nc3c(N4CCC(C(=O)NCCc5cccs5)CC4)nnc(C)c3c2C)cc1
> 80 µM (inactive)	CCOc1ccccc1NC(=O)Cn1c(=O)n(-c2ccccc2)c(=O)c2oc3ccccc3c21
inactive	COc1cc([N+](=O)[O-])cc(/C=N/NC(=O)c2ccc(NC(=O)c3ccc(C)cc3)cc2)c1O
9.88 µM	COc1ccc(/C=N/Nc2cc(C)nc3ccc(Br)cc23)cc1
inactive	COc1ccc(C(=O)/C=C/c2cccs2)c(OC(=O)c2cccc([N+](=O)[O-])c2)c1
> 80 µM (inactive)	Cc1ccc(Cn2c(SCC(=O)Nc3cc(C)on3)nc3ccccc3c2=O)cc1
> 80 µM (inactive)	Cc1ccc(Nc2nc(NCc3ccco3)c3ccccc3n2)cc1
> 80 µM (inactive)	Cc1ccc(-c2cc(C(F)F)n3ncc(C(=O)N4CCc5ccccc54)c3n2)cc1
13.3 µM	COc1ccccc1NC(=O)c1cc2c(CO)cnc(C)c2oc1=Nc1ccccc1
